Columns and labels:
Assay in all cases: drug sensitivity score (DSS2, normalised partial AUC of dose-response, 72 h CellTiter-Glo viability) (DSS (dimensionless)); higher = more sensitive (stronger growth inhibition / cytotoxicity); extreme values may be limits of the assay
[1] = system: PF179T
In short: (§1)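 The drug sensitivity score reported here is a partial area under the fitted logistic dose–response curve, divided by the log of the curve's upper asymptote and computed in BREEZE; higher values denote greater sensitivity. Low-passage primary prostate cancer-associated fibroblasts, PF179T, WPMY-1, LNCaP and 22Rv1 cells were seeded into 384-well plates preloaded with compounds at five doses across a 10,000-fold range. CellTiter-Glo 2.0 luminescence gave viability at 72 h, scaled to vehicle and positive-control wells.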

[2] = system: CAF#4 (primary prostate cancer-associated fibroblasts of iCAF-like type)
In short: as §1

[3] = system: CAF#7 (primary prostate cancer-associated fibroblasts of myCAF-like type)
In short: as §1

[4] = system: CAF#1 (primary prostate cancer-associated fibroblasts of myCAF-like type)
In short: as §1

[5] = system: 22Rv1
In short: as §1

[6] = system: CAF#5 (primary prostate cancer-associated fibroblasts of myCAF-like type)
In short: as §1

[7] = system: LNCAP
In short: as §1

[8] = system: CAF#2 (primary prostate cancer-associated fibroblasts of iCAF-like type)
In short: as §1

[9] = system: CAF#6 (primary prostate cancer-associated fibroblasts of iCAF-like type)
In short: as §1

[10] = system: WPMY-1
In short: as §1

[11] = system: CAF#3 (primary prostate cancer-associated fibroblasts of myCAF-like type)
In short: as §1

| SMILES | drug sensitivity score [1] | drug sensitivity score [2] | drug sensitivity score [3] | drug sensitivity score [4] | drug sensitivity score [5] | drug sensitivity score [6] | drug sensitivity score [7] | drug sensitivity score [8] | drug sensitivity score [9] | drug sensitivity score [10] | drug sensitivity score [11] |
| --- | --- | --- | --- | --- | --- | --- | --- | --- | --- | --- | --- |
| O=C(O)CCCCC(CCSCc1ccccc1)SCc1ccccc1 (centres undefined) [Devimistat] (tested concentration range 1-10000 nM) | 0 | 0 | 0 | 0 | 0 | 0 | 0 | 0 | 0 | 0 | 0 |
| C[C@@H]1C[C@H]2[C@@H]3CCC4=CC(=O)C=C[C@]4(C)[C@@]3(F)[C@@H](O)C[C@]2(C)[C@@]1(O)C(=O)CO [Dexamethasone] (tested concentration range 1-10000 nM) | 0 | 0 | 0.3 | 0 | 0 | 0 | 0 | 0 | 0 | 0 | 0 |
| C[C@H]1O[C@@H](O[C@H]2[C@@H](O)C[C@H](O[C@H]3[C@@H](O)C[C@H](O[C@H]4CC[C@@]5(C)[C@H](CC[C@@H]6[C@@H]5C[C@@H](O)[C@]5(C)[C@@H](C7=CC(=O)OC7)CC[C@]65O)C4)O[C@@H]3C)O[C@@H]2C)C[C@H](O)[C@@H]1O [Digoxin] (tested concentration range 0.1-1000 nM) | 13.6 | 19.4 | 11.2 | 10.2 | 14.4 | 13.4 | 12 | 13.8 | 10.8 | 14.7 | 8.7 |
| CCc1cnn2c(NCc3ccc[n+]([O-])c3)cc(N3CCCC[C@H]3CCO)nc12 [Dinaciclib] (tested concentration range 0.1-1000 nM) | 10.6 | 13 | 15.9 | 18.5 | 21.5 | 18 | 27.6 | 18.2 | 14.2 | 18.9 | 12.3 |
| CCN(CC)C(=S)SSC(=S)N(CC)CC [Disulfiram] (tested concentration range 5-50000 nM) | 0 | 0.9 | 0.1 | 5 | 0 | 6.6 | 0.1 | 3.7 | 0 | 0 | 0 |
| CC(=O)O[C@@]12CO[C@@H]1C[C@H](O)[C@@]1(C)C(=O)[C@H](O)C3=C(C)[C@@H](OC(=O)[C@H](O)[C@@H](NC(=O)OC(C)(C)C)c4ccccc4)C[C@@](O)([C@@H](OC(=O)c4ccccc4)[C@H]21)C3(C)C [Docetaxel] (tested concentration range 0.1-1000 nM) | 19.7 | 14.2 | 25.6 | 16.4 | 25.4 | 17.2 | 34.6 | 20.6 | 16.7 | 28.3 | 12.8 |
| Cc1ccc(-n2nc(C(C)(C)C)cc2NC(=O)Nc2ccc(OCCN3CCOCC3)c3ccccc23)cc1 [Doramapimod] (tested concentration range 1-10000 nM) | 2.1 | 0 | 1.4 | 1.9 | 2.5 | 0.6 | 5.4 | 2.7 | 0.9 | 0 | 1.2 |
| CN1CCN(c2ccc3nc(-c4c(N)c5c(F)cccc5[nH]c4=O)[nH]c3c2)CC1 [Dovitinib] (tested concentration range 1-10000 nM) | 0 | 0 | 0 | 0.2 | 0.2 | 0.8 | 0.3 | 2.6 | 0 | 0 | 0.7 |
| COc1cccc2c1C(=O)c1c(O)c3c(c(O)c1C2=O)C[C@@](O)(C(=O)CO)C[C@@H]3O[C@H]1C[C@H](N)[C@H](O)[C@H](C)O1 [Doxorubicin] (tested concentration range 0.1-1000 nM) | 7.5 | 2.6 | 0 | 6.5 | 12.2 | 6.7 | 0 | 7.8 | 0 | 9.8 | 0 |
| C[C@H](Nc1ncnc2nc[nH]c12)c1cc2cccc(Cl)c2c(=O)n1-c1ccccc1 [Duvelisib] (tested concentration range 0-500 nM) | 1.7 | 1.7 | 1.9 | 1.1 | 0 | 2.3 | 11 | 1 | 1.3 | 0.5 | 3.4 |
| NC(=O)/C(=C/n1cnc(-c2cc(C(F)(F)F)cc(C(F)(F)F)c2)n1)c1cncnc1 [Eltanexor] (tested concentration range 1-10000 nM) | 18.2 | 15.5 | 14.4 | 14.5 | 31.1 | 16.8 | 28.6 | 22.8 | 12.1 | 27.5 | 10.8 |
| CC(C)(O)CNc1nc(Nc2ccnc(C(F)(F)F)c2)nc(-c2cccc(C(F)(F)F)n2)n1 [Enasidenib] (tested concentration range 1-10000 nM) | 0 | 0 | 0 | 0 | 1.7 | 0 | 1.2 | 0 | 0 | 0 | 0.4 |
| COC(=O)N[C@@H](C)CNc1nccc(-c2cn(C(C)C)nc2-c2cc(Cl)cc(NS(C)(=O)=O)c2F)n1 [Encorafenib] (tested concentration range 0.1-1000 nM) | 0.6 | 0.5 | 1.3 | 0.6 | 2.3 | 0.7 | 2.3 | 0 | 0.9 | 0 | 2 |
| C[C@@H]1CN(C(=O)c2ccc(NC(=O)c3cc(O[C@H](C)c4c(Cl)ccc(F)c4Cl)c(N)nn3)cc2)C[C@H](C)N1 [Ensartinib] (tested concentration range 0.1-1000 nM) | 2.3 | 0.7 | 0.8 | 2.2 | 2.1 | 4.1 | 1.4 | 3.1 | 2.2 | 3 | 2.7 |
| Nc1ccccc1NC(=O)c1ccc(CNC(=O)OCc2cccnc2)cc1 [Entinostat] (tested concentration range 1-10000 nM) | 8.1 | 4.8 | 3.5 | 5 | 10.2 | 7.4 | 11.6 | 8.5 | 2.2 | 8.5 | 2.4 |
| CN1CCN(c2ccc(C(=O)Nc3n[nH]c4ccc(Cc5cc(F)cc(F)c5)cc34)c(NC3CCOCC3)c2)CC1 [Entrectinib] (tested concentration range 0.1-1000 nM) | 1 | 0 | 2.1 | 1.3 | 1.1 | 0.8 | 1 | 1.9 | 0.7 | 0.9 | 2.1 |
| CNC(=O)c1ccc(N2C(=S)N(c3ccc(C#N)c(C(F)(F)F)c3)C(=O)C2(C)C)cc1F [Enzalutamide] (tested concentration range 1-10000 nM) | 0.4 | 2.2 | 0 | 3.9 | 0 | 2.8 | 2.6 | 2.3 | 0.5 | 0 | 0 |
| Cn1cc(C2=C(c3cn(C4CCN(Cc5ccccn5)CC4)c4ccccc34)C(=O)NC2=O)c2ccccc21 [Enzastaurin] (tested concentration range 1-10000 nM) | 2.3 | 1.1 | 0 | 0 | 4.2 | 0 | 4.7 | 2.1 | 1.1 | 5.2 | 0 |
| NS(=O)(=O)NCCNc1nonc1/C(=N/O)Nc1ccc(F)c(Br)c1 [Epacadostat] (tested concentration range 1-10000 nM) | 0.5 | 2 | 1.1 | 0 | 0 | 0.9 | 0 | 1.1 | 0 | 0.2 | 0 |
| COc1cccc2c1C(=O)c1c(O)c3c(c(O)c1C2=O)C[C@@](O)(C(=O)CO)C[C@@H]3O[C@H]1C[C@H](N)[C@@H](O)[C@H](C)O1 [Epirubicin] (tested concentration range 0.1-1000 nM) | 6.7 | 2.8 | 7.9 | 4.8 | 10.1 | 4.4 | 15.7 | 6.2 | 7 | 9.5 | 3.7 |
| COCC1(CO)C(=O)C2CCN1CC2 (centres undefined) [Eprenetapopt] (tested concentration range 1-10000 nM) | 0 | 0 | 0.2 | 0.1 | 0 | 0.4 | 0 | 0 | 0 | 0 | 0 |
| COc1cc(OC)cc(N(CCNC(C)C)c2ccc3ncc(-c4cnn(C)c4)nc3c2)c1 [Erdafitinib] (tested concentration range 0.1-1000 nM) | 7.2 | 8.8 | 15 | 5.9 | 0 | 2.7 | 0 | 4.8 | 8 | 0 | 6.2 |
| C=C1C[C@@H]2CC[C@@]34C[C@H]5O[C@H]6[C@@H](O3)[C@H]3O[C@H](CC[C@@H]3O[C@H]6[C@H]5O4)CC(=O)C[C@@H]3[C@@H](OC)[C@@H](C[C@H](O)CN)O[C@H]3C[C@H]3O[C@@H](CC[C@@H]1O2)C[C@@H](C)C3=C [Eribulin] (tested concentration range 0.1-1000 nM) | 19.4 | 9.6 | 22.1 | 12.3 | 24 | 13.7 | 36.5 | 18.3 | 15.3 | 28.9 | 11.8 |
| C#Cc1cccc(Nc2ncnc3cc(OCCOC)c(OCCOC)cc23)c1 [Erlotinib] (tested concentration range 1-10000 nM) | 1.4 | 4.8 | 1.1 | 3.7 | 1.4 | 4.8 | 4 | 3.7 | 0.2 | 0.5 | 1.2 |

Reference: the supplement of paper PMC12592484
